From patent publication US20250136991A1, “METHOD OF MAKING BONE AND CARTILAGE” (priority 2022, published 2025)
Peptide text beside a SMILES is read from it. * marks the point of attachment. Cbz = O=C(OCc1ccccc1)*

Legend:
Mast4 [1] = assay: Mast4 degradation (cycloheximide chase) in Mast4-PDZ-overexpressing C3H10T1/2 cells with CHIR-99021; assay type: cell-based, murine; parameters: dose or concentration left out as unconfirmed; conditions: (FIG. 22d)
Source text: FIGS. 22a-22e show Mast4 induction during osteogenesis and GSK-3b regulation of Mast4 expression. (a) The schematic representation of osteogenic differentiation of C3H10T1/2 cells. (b) The indicated C3H10T1/2 cells were differentiated into osteoblasts for 10 days, followed by Alizarin Red S staining. (c) C3H10T1/2 cells were differentiated into osteoblasts for 10 days, followed by western blot analysis for the expression of Mast4 and key Wnt signaling molecules. (d) Mast4-PDZ-overexpressing C3H10T1/2 cells were treated with cycloheximide (CHX; […]) for the indicated time in the absence or presence of CHIR-99021 ([…]). (e) The wild-type and GSK-3b-depleted HA-Mast4-PDZ-overexpressing C3H10T1/2 cells were treated with MG-132 ([…] for 4 h) and CHIR-99021 ([…]). (b-d) The representative result were obtained from at least three separate experiments.
For the immunoprecipitation assay, cell extracts were incubated with the indicated primary antibodies overnight at 4° C. Antibody-bound proteins were precipitated with Dynabeads Protein G (Invitrogen). Cells were lysed in a RIPA buffer containing protease inhibitor cocktail (Complete; Roche). Samples were separated by SDS-PAGE, followed by electrotransfer to polyvinylidene difluoride membranes (PVDF; Millipore). […] All signals were detected by Amersham Imager 600 (GE Healthcare Life Sciences).

Mast4 [2] = assay: Mast4-PDZ expression in C3H10T1/2 cells transfected with Mast4-PDZ and GSK-3β, CHIR-99021 treatment (western blot); assay type: cell-based, murine; conditions: CHIR-99021 10 μM for 9 h (FIG. 4d)
Method: Cell lysates were immunoprecipitated with Flag antibody and immunoblotted with the indicated antibodies. k MC3T3-E1 cells were transfected with Mast4-PDZ WT and Δ632-636, followed by treatment of Wnt3a conditioned medium (2.5 h). l 6xOSE-Luc, Mast4-PDZ WT and Δ632-636 were transfected to C3H10T1/2 cells, followed by treatment of Wnt3a conditioned medium (18 h). […] Unpaired two-tailed Student's t test (P<0.05) with Benjamini-Hochberg correction for multiple tests was conducted for all statistical analyses. b-k The representative results were obtained from at least three independent experiments. TCL: total cell lysates.
For the immunoprecipitation assay, cell extracts were incubated with the indicated primary antibodies overnight at 4° C. Antibody-bound proteins were precipitated with Dynabeads Protein G (Invitrogen). Cells were lysed in a RIPA buffer containing protease inhibitor cocktail (Complete; Roche). Samples were separated by SDS-PAGE, followed by electrotransfer to polyvinylidene difluoride membranes (PVDF; Millipore). The membrane was blocked for 1 h at room temperature and incubated overnight at 4° C. with the primary antibodies. Horseradish peroxidase-conjugated antibodies (Millipore) were used as secondary antibodies. The peroxidase reaction products were visualized with WESTZOL (Intron). All signals were detected by Amersham Imager 600 (GE Healthcare Life Sciences).

Sox9 = assay: Mast4-induced Sox9 degradation in C3H10T1/2 cells with MG-132 treatment (western blot); assay type: cell-based, murine; conditions: C3H10T1/2 cells transfected with Myc-Sox9 and Mast4-PDZ, MG-132 10 mM for 6 h (FIG. 16e)
Method: (a) The indicated C3H10T1/2 cells were differentiated into chondrocytes for 6 days, followed by Sox9 ChIP on the Col2a1 gene. (b) 4xCol2a1-luc was transiently overexpressed in LPCX control and Mast4 PDZ-overexpressing C3H10T1/2 cells, followed by TGF-b1 treatment (3 ng/ml for 24 h). (a and b) Data are representative mean±SD of three independent experiments, each conducted in triplicate (n=3). Unpaired two-tailed Student's t test (P<0.05) with Benjamini-Hochberg correction for multiple tests was conducted for all statistical analyses. P values versus WT. (c) Full-length (HA-Mast4-FULL) and truncated Mast4 (HA-Mast4-PDZ) together with siMAST4 (50 pmol) that targets exogenous Mast4 (human) were co-transfected with Myc-Sox9 into C3H10T1/2 cells. Due to inefficient detection of full length Mast4 with HA antibody, Mast4 antibody which recognizes the C-terminus was used. (d) The indicated C3H10T1/2 cells were differentiated to chondrocytes for 6 days, followed by MG-132 ([…] for 6 h) treatment. Endogenous Sox9 was immunoprecipitated, and the complexes were analyzed by western blot using phospho-serine and Sox9 antibodies. […]
(§1) For the immunoprecipitation assay, cell extracts were incubated with the indicated primary antibodies overnight at 4° C. […] All signals were detected by Amersham Imager 600 (GE Healthcare Life Sciences).

Mast4-PDZ P628A/Y634A = Mast4-PDZ P628A/Y634A (UniProt O15021)
Mast4 promoter [3] = assay: Mast4 promoter luciferase assay in undifferentiated C3H10T1/2 cells; assay type: cell-based, murine; conditions: TGF-β1 5 ng/ml for 24 h (FIG. 3d)
Method: (§2) FIGS. 3a-3g show TGF-β1-induced suppression of Mast4 enhances chondrogenesis by increasing Sox9-Smad3 association. a Sox9 and Smad3 were co-transfected to wild-type and Mast4-depleted C3H10T1/2 cells, followed by TGF-β1 treatment (5 ng/ml for 30 minutes). Sox9 was immunoprecipitated using HA antibody. Band intensities representing GFP-Smad3 and HA-Sox9 expression level in the immunoprecipitates were converted by densitometry using ImageJ software into the ratio of Smad3 to Sox9. Data are reported as mean±SD of three independent experiments (n=3). Unpaired two-tailed Student's t test (P<0.05) was conducted for statistical analysis. b Smad3 ChIP on Col2a1 gene assay was performed in differentiating C3H10T1/2 cells for 6 days. c Mast4 expression was examined by western blot and RT-PCR of C3H10T1/2 cells treated with TGF-β1 for 48 h. d Luciferase assay was conducted in undifferentiated C3H10T1/2 cells. […]
C3H10T1/2 cells were transiently transfected with 4xCol2a1-luc, Smad3/4-responsive promoter (CAGA)12-luc, SBE-luc, 6xOSE-luc, MAST4-promoter luciferase report plasmids, HA-MAST4 PDZ, Myc-Sox9 WT/S494A/S494D plasmids using polyethylenimine (Polysciences). […] The luciferase activities were analyzed using the Luciferase Assay System kit (Promega) according to the manufacturer's protocol. […]

Mast4 [4] = assay: Mast4 expression in human primary chondrocytes treated with TGF-β1; assay type: cell-based; conditions: TGF-β1 5 ng/ml for 24 h and 48 h (FIG. 3g)
Method: as §2, with “cells. Vactosertib (0.5 μM) was pre-treated for 2 h prior to TGF-β1 (5 ng/ml) treatment for 24 h. e Smad3 ChIP assay on Mast4 gene was conducted in C3H10T1/2 cells undergoing chondrogenic differentiation for 6 days.” for “cells.”

Mast4 [5] = assay: Mast4 expression by western blot and RT-PCR in C3H10T1/2 cells treated with TGF-β1; assay type: cell-based, murine; conditions: TGF-β1 for 48 h (FIG. 3c)
Method: FIGS. 3a-3g show TGF-β1-induced suppression of Mast4 enhances chondrogenesis by increasing Sox9-Smad3 association. a Sox9 and Smad3 were co-transfected to wild-type and Mast4-depleted C3H10T1/2 cells, followed by TGF-β1 treatment (5 ng/ml for 30 minutes). Sox9 was immunoprecipitated using HA antibody. Band intensities representing GFP-Smad3 and HA-Sox9 expression level in the immunoprecipitates were converted by densitometry using ImageJ software into the ratio of Smad3 to Sox9. Data are reported as mean±SD of three independent experiments (n=3). […]
Total RNA was prepared using EasyBlue (Boca Scientific). […] Quantitative real-time PCR was performed using Power SYBR Green PCR Master Mix (Applied Biosystems) on the QuantStudio 5 Real-Time PCR Instrument (Applied Biosystems). The mRNA levels of various genes were measured in triplicate and normalized with Gapdh. […]
as §1

Mast4 promoter [6] = assay: Smad3 ChIP assay on Mast4 gene in differentiating C3H10T1/2 cells; assay type: cell-based, murine; conditions: 6 days chondrogenic differentiation, TGF-β1 5 ng/ml for 48 h (FIG. 3e, FIG. 20)
Method: as §2, with “cells. Vactosertib (0.5 μM) was pre-treated for 2 h prior to TGF-β1 (5 ng/ml) treatment for 24 h. e Smad3 ChIP assay on Mast4 gene was conducted in C3H10T1/2 cells undergoing chondrogenic differentiation for 6 days.” for “cells.”

Sequence of Mast4-PDZ P628A/Y634A (O15021 whole entry P628A/Y634A, looked up): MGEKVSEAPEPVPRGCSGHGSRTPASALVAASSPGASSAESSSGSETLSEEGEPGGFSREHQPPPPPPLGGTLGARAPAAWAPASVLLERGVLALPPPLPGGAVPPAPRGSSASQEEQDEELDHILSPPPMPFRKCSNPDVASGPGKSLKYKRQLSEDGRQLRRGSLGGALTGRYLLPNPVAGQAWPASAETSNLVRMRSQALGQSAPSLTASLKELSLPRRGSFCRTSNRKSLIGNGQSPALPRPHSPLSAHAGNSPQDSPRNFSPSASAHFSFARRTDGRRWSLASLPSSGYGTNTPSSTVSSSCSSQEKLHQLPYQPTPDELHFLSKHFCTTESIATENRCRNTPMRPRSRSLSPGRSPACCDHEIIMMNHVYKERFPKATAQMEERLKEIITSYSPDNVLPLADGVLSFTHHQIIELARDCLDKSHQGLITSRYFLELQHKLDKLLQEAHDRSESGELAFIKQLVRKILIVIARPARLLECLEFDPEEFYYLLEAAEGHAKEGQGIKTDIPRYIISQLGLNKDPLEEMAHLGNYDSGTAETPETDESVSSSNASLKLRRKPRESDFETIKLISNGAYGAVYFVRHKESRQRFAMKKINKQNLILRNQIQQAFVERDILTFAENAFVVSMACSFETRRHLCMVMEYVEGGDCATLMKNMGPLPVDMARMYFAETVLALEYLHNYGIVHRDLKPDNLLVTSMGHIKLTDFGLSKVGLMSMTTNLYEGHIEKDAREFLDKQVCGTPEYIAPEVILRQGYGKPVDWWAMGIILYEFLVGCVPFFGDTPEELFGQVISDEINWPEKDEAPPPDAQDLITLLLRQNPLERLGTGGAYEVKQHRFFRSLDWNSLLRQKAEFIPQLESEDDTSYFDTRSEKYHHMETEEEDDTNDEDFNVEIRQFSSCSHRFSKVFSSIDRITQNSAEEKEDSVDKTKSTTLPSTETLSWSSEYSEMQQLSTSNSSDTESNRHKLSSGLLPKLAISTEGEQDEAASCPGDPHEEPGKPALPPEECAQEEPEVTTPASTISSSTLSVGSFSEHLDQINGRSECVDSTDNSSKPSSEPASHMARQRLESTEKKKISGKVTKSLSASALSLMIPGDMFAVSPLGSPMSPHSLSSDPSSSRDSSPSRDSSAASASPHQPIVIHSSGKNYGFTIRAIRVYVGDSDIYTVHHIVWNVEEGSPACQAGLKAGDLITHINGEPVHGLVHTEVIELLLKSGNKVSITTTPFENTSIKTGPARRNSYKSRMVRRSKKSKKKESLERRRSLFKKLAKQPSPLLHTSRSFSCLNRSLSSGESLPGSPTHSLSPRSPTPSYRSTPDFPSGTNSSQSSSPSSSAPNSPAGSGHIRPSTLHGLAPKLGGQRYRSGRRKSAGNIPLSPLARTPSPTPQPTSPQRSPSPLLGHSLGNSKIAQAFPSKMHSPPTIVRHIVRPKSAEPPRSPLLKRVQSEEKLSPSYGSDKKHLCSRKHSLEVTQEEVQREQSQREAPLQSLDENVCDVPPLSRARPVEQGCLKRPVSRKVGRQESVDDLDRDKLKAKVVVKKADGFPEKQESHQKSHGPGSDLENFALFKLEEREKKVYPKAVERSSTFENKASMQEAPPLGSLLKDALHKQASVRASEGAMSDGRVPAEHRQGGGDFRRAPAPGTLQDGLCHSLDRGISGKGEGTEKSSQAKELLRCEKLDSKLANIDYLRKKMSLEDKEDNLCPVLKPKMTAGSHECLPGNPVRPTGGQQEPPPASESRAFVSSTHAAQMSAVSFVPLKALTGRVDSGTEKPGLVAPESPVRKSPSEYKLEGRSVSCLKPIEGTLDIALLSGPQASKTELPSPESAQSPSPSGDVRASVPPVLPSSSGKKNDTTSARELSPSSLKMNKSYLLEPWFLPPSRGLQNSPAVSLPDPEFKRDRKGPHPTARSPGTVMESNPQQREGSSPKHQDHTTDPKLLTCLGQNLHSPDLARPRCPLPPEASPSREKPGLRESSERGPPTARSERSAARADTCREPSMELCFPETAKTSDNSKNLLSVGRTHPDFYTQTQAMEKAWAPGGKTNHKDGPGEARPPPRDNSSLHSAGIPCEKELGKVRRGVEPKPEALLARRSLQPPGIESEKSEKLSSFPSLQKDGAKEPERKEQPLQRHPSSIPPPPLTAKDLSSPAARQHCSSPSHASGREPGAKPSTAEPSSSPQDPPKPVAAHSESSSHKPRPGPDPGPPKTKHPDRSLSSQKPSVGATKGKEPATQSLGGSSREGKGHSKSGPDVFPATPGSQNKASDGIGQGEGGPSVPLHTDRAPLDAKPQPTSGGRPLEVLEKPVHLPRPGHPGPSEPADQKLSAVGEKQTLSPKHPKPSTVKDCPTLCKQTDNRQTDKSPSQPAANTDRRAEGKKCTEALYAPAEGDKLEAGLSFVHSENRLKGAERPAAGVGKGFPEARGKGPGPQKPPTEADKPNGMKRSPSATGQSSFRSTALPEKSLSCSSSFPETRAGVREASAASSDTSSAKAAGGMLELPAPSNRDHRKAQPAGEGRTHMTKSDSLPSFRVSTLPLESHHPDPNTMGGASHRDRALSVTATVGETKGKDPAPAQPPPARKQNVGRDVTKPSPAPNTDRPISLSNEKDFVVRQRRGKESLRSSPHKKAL

Cc1c[nH]c(-c2cnc(NCCNc3ccc(C#N)cn3)nc2-c2ccc(Cl)cc2Cl)n1 [GSK-3β inhibitor, CHIR-99021]
Mast4 degradation (Mast4 [1]): significantly delayed | Mast4 expression (Mast4 [2]): dramatically increased

CC(C)C[C@@H](C=O)NC(=O)[C@H](CC(C)C)NC(=O)[C@H](CC(C)C)NC(=O)OCc1ccccc1 [MG-132] (Cbz-Leu-Leu-Leu-aldehyde)
Mast4-induced Sox9 degradation (Sox9): restored

Smurf1
Smurf1-mediated Mast4 degradation (Mast4-PDZ P628A/Y634A): mutation of PY-like motif in the kinase domain of Mast4 (P628A/Y634A) prevented Smurf1-mediated Mast4 degradation

TGF-β1: TGF-β1 protein (R&D Systems) used to treat cells
Mast4 promoter activity (Mast4 promoter [3]): suppressed | Mast4 mRNA expression level (Mast4 [4]): gradual reduction | mRNA and protein expression of Mast4 (Mast4 [5]): markedly suppressed | Smad3 occupancy at the Mast4 promoter (Mast4 promoter [6]): significantly increased
